target: K562 (Homo sapiens); experiment: Cell assay using human leukemia cell line K562.

IC50 [µM]	SMILES
> 10	Cc1c(COc2c(F)cc(F)cc2F)c2c(O)cc(N=CCCCN)c(O)c2n1C [Indolequinone, compd 3]
> 10	Cc1c(COc2c(F)cc(F)cc2F)c2c(O)c(N=CCCN)cc(O)c2n1C [Indolequinone, compd 4]
> 10	Cc1c(CO)c2c(O)c(N=CCCN(C)C)cc(O)c2n1C [Indolequinone, compd 9]
> 10	Cc1c(COc2c(F)cc(F)cc2F)c2c(n1C)C(=O)C=C(N(C)CCCN(C)C)C2=O [Indolequinone, compd 7]
> 10	Cc1c(COc2ccccc2)c2c(O)c(N=CCCN(C)C)cc(O)c2n1C [Indolequinone, compd 8]
> 10	Cc1c(COc2c(F)cc(F)cc2F)c2c(O)c(N=CCCCN)cc(O)c2n1C [Indolequinone, compd 2]
> 10	Cc1c(COc2c(F)cc(F)cc2F)c2c(O)cc(N=CCCN(C)C)c(O)c2n1C [Indolequinone, compd 6]
> 10	Cc1c(COc2c(F)cc(F)cc2F)c2c(O)c(N=CCCN(C)C)cc(O)c2n1C [Indolequinone, compd 5]
> 10	Cc1c(COc2ccc([N+](=O)[O-])cc2)c2c(O)c(N=CCCCN)cc(O)c2n1C [Indolequinone, compd 1]

Reference: BindingDB's records for doi:10.1021/bi2002967 (University of Colorado Denver, 2011)
